Reference: ChEMBL document CHEMBL1150896, “Arenarins A-C: new cytotoxic fungal metabolites from the sclerotia of aspergillus arenarius” (1998)
Values after ≈ are worked out from the molar mass of the structure shown.

Key:
Type in all cases: functional
Carpophilus [1] = assay: Reduction of feeding rate in adult Carpophilus hemipterus at 100 ppm dietary level relative to control; design: scale not given: the % may be the effect or the level left
Carpophilus [2] = assay: Reduction of feeding rate in Carpophilus hemipterus larvae at 100 ppm dietary level relative to control; design: scale not given: the % may be the effect or the level left
[3] = Cytotoxicity against human NCI60 cells

Row | SMILES | Activity (Carpophilus [1]) | Activity (Carpophilus [2]) | GI50 [3]
1 | C=C(C)C1Cc2c(ccc(OC)c2OC/C=C(\C)CO)C2=C1C(=O)C(c1ccc(O)cc1)=C(OC)C2=O (stereo unspecified) [ARENARIN C] | 13% |  | 
2 | COc1c(-c2ccc(O)cc2)c(O)cc2c1oc1cc(O)c(OCC=C(C)C)cc12 [ARENARIN A] | 13% | 13% | 4.8 µg/mL (≈ 11.8 µM)
3 | C=C(C)C1Cc2c(ccc(O)c2OC/C=C(\C)CO)C2=C1C(=O)C(c1ccc(O)cc1)=C(OC)C2=O (stereo unspecified) [ARENARIN B] | 20% |  | 3.8 µg/mL (≈ 7.78 µM)
